Tested on: old rats
Test: Effect on sleep patterns (EEG pattern) in old rats
Assay type: in vivo
Conditions: single dose
Protocol: In these animals the EEG patterns are disturbed. Administration of an effective amount of a CCK-B antagonist to such an animal alters the EEG pattern towards the normal. These effects may be observed using standard procedures such as those described by H.Depoortere et al. Physiology & Behaviour 1993, 54, 785-793.
The ability of CCK-B antagonists to effect sleep patterns in old rats was measured by examining the effect of the compound on the EEG pattern using the procedures described by H Depoortere et al. Physiology & Behaviour 1993 54, 785-793.

| SMILES | Dose that resulted in a significant improvement in total sleep time pattern (ip) [µg/kg] | Dose that resulted in a significant improvement in total sleep time pattern (ip and po) [µg/kg] |
| --- | --- | --- |
| O=C(Nc1cccc(C(=O)O)c1)NC1C(=O)N(CC23CC4CC(CC(C4)C2)C3)c2ccccc2N(c2ccccc2)C1=O (stereo not drawn) [Compound 5, N-1[-(Adamantylmethyl)-2,4,-dioxo-5-phenyl-2,3,4,5-tetrahydro-1H-1,5-benzodiazepin-3-yl]-N′-(3-carboxyphenyl)urea] | 15 |  |
| CC(CNCC(NC(=O)CCC(=O)O)c1ccccc1)(Cc1c[nH]c2ccccc12)NC(=O)OC1C2CC3CC(C2)CC1C3.CNCC(O)C(O)C(O)C(O)CO (stereo not drawn) [Compound 4, (R-(R*, R*))4-((2-((3-(1H-indol-3-yl)-2-methyl-2-((tricyclo(3,3,1,1,3,7)dec-2yloxy)carbonyl)aminopropyl)amino)-1-phenylethyl)amino-4-oxo-butanoic acid meglumine salt] | 5 |  |
| O=C(Nc1ccccc1)NC1C(=O)N(CCN2CCOCC2)c2ccccc2N(CC23CC4CC(CC(C4)C2)C3)C1=O (single isomer, unassigned; (-)) [Compound 2, (−) N-[1-(1-Adamantylmethyl)-2,4-dioxo-5-[2-(4-morpholino)ethyl]-2,3,4,5-tetrahydro-1H-benzodiazepin-3-yl]-N′-phenylurea] | 0.5 |  |
| O=C(Nc1ccccc1)NC1C(=O)N(CC23CC4CC(CC(C4)C2)C3)c2ccccc2N(c2ccccc2)C1=O (single isomer, unassigned; (+)) [Compound 1, (+) N-phenyl-N′-[2,3,4,5-tetrahydro-2,4-dioxo-1-(1-adamantylmethyl)-5-phenyl-1H-1,5-benzodiazepin-3-yl]urea] |  | 5 |
| CN(C)CCN1C(=O)C(NC(=O)Nc2ccccc2)C(=O)N(CC23CC4CC(CC(C4)C2)C3)c2ccccc21 (stereo not drawn) [Compound 6] | 0.5 |  |
| Cc1cccc(NC(=O)NC2N=C(c3ccccc3)c3ccccc3N(C)C2=O)c1 (stereo not drawn) [Compound 3, N-(2,3-dihydro-1-methyl-2-oxo-5-phenyl-1H-1,4-benzodiazepin-3-yl]-N′-3-methylphenyl urea] | 5 |  |

From patent US6413930B1, “Use of cck-b receptor antagonists for the treatment of sleep disorders” (Glaxo Wellcome Spa, priority 1994, dated 2002)
